Drawing on PubChem BioAssay (NCI), this text covers TGI and GI50 for 34 molecules.

Holding throughout (experiment): NCI tumour cell line growth inhibition, 48 h
Assay [1] has as its system K-562 leukemia.
For assay [2], the system named is NCI-H226 lung.
Assay [3] relates to OVCAR-3 ovarian.
For assay [4], the system named is SN12C renal.
The test system of assay [5] is SNB-19 CNS.
In assay [6] the test system is U251 CNS.
Assay [7] has as its system DU-145 prostate.
Assay [8] has as its system HS 578T breast.
Assay [9] concerns NCI/ADR-RES ovarian.
The subject of assay [10] is MDA-MB-435.

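These data come from cells grown in 96-well plates and exposed to compound for 48 hours at five concentrations. Abbreviation: GI50, concentration required for 50% inhibition of growth. TGI: concentration producing complete growth inhibition.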

Take `N#CC(C#N)=C1SCC(=O)CS1`: the TGI in assay [1], in assay [2], in assay [3], in [4], in assay [5] and in assay [6] was more than 100 µM throughout.

Consider `CC1(C)C2C/C(=C\c3ccccc3)C(=O)C1C2` (configuration not stated), for which the TGI in assay [1], in assay [3], in assay [4], in assay [5] and in assay [6] was more than 100 µM in each case.

`COc1ccc(/C=C/C(=O)c2cc3c(N)c(C(=O)Nc4ccccc4)sc3nc2C)cc1`: the GI50 was 0.19 µM in [7]; 0.153 µM in assay [8]; 0.14 µM in [1]; 0.55 µM in assay [2]; 0.121 µM in [9]; 0.146 µM in assay [3]. The results for the GI50 in assay [4], in [5] and in [6] were 0.311 µM, 0.269 µM and 0.325 µM, respectively. In addition, the TGI in assay [7] was more than 22.9 µM; in [8] it was more than 50 µM; in [1] it was more than 50 µM; in assay [2] it was 7.28 µM; in [3], 0.791 µM; in assay [4], more than 21 µM. In addition, the TGI in [5] was more than 50 µM; in assay [6], 8.24 µM.

In the case of `Cn1c(=O)c(C(=O)NC(=O)OCc2ccccc2)cn(CCSCCOC(=O)NCCCCCCNC(=O)OCCSCCn2cc(C(=O)NC(=O)OCc3ccccc3)c(=O)n(C)c2=O)c1=O`, the TGI in assay [1], in assay [2], in assay [4], in assay [5] and in [6] was more than 100 µM throughout.

For the molecule `Cc1cccc2c1C/C(=C1\CCc3c(C)cccc31)C2=O`, the TGI in assay [1], in assay [2], in assay [3], in assay [4], in assay [5] and in assay [6] was more than 100 µM each time.

Consider `Cc1cc(=O)oc2cc(OCc3nc4ccccc4c(=O)[nH]3)ccc12`, for which the TGI in assay [1], in [2], in assay [3], in assay [4], in assay [5] and in assay [6] was more than 100 µM each time.

Consider `CCOc1ccccc1NC(=O)C1=C(C)NC(C)=C(C(=O)Nc2ccccc2OCC)C1c1ccc(NC(C)=O)cc1`, for which the TGI in assay [1], in assay [2], in [3], in [4], in assay [5] and in [6] was more than 100 µM in each case.

`Cc1cccc2c1C(=O)OC2(C)c1cccc2ccccc12` (configuration not stated): the TGI was more than 100 µM in [1]; 57.2 µM in [2]; 78.8 µM in assay [3]; 56 µM in [4]; more than 100 µM in assay [5]; 73.8 µM in assay [6].

In the case of `C/C(=C\CC[C@]1(C)OC(C)(C)OC1CC/C(C)=C/CO[Si](c1ccccc1)(c1ccccc1)C(C)(C)C)CC/C=C/CO[Si](C)(C)C(C)(C)C` (some centres not stated), the TGI in [1], in [2], in assay [3], in assay [4], in assay [5] and in [6] was more than 100 µM each time.

Turning to `c1ccc(SC(CCCCOC2CCCCO2)Sc2ccccc2)cc1` (configuration not stated), the TGI in assay [1], in assay [3], in assay [4], in [5] and in assay [6] was more than 100 µM in each case.

Regarding `CC(=O)c1c[nH]cc1CO`, the TGI in [1], in assay [2], in assay [9], in [3], in assay [4] and in assay [5] was more than 10 µM each time. Moreover, in assay [6], the TGI was more than 10 µM.

With `Cc1ccc(/C=C2\CCCC\C2=N\O)cc1`, the TGI in assay [1], in assay [3], in assay [4], in assay [5] and in assay [6] was more than 100 µM in each case.

On to `C[CH2][Sn]([CH2]C)([O]C(=O)c1cccc(F)c1)[O][Sn]([CH2]C)([CH2]C)[O]C(=O)c1cccc(F)c1`, for which the GI50 was 18 µM in [1]; 18.8 µM in [2]; 78.8 µM in assay [3]; 17 µM in assay [4]; 20.2 µM in assay [5]; 16.9 µM in [6]. In addition, the TGI was 93.4 µM in assay [1]; 33.8 µM in assay [2]; more than 100 µM in [3]; 31.3 µM in assay [4]; 39.5 µM in [5]; 30.6 µM in assay [6].

`CC1=Nn2c(nnc2-c2ccc(N)cc2)NC(C)(C)C1`: the TGI in [1], in assay [2], in [3], in assay [5] and in assay [6] was more than 100 µM in each case.

As for `O=C(/C=C1/NC(=O)CS1)Nc1ccccc1`, the TGI in assay [1], in assay [2], in assay [3], in assay [4], in assay [5] and in assay [6] was more than 100 µM throughout.

As to `O=C1C[C@@H]2CCCC[C@@H]2C12SCCS2`, the TGI in assay [1], in assay [3], in assay [4], in assay [5] and in assay [6] was more than 100 µM in each case.

Regarding `N#C[S-].[Au+].c1ccc(CN2[CH-]N(Cc3ccccc3)C(c3ccccc3)=C2c2ccccc2)cc1`, the GI50 in assay [7] was 0.479 µM; in assay [8], 0.744 µM; in assay [10], 0.492 µM; in assay [3], 0.351 µM. The TGI in [7] is 1.69 µM; in assay [8] it was 4.62 µM; in [10] it was 1.74 µM; in assay [3], 1.3 µM.

As for `NC(CCSC(F)F)C(=O)O` (configuration not stated), the TGI in assay [1], in [2], in [3], in assay [4], in [5] and in assay [6] was more than 100 µM throughout.

As to `COc1cc(/C=C2/C(=O)NC(Cc3cc(OC)c(OC)c(C)c3OC)C(=O)N2Cc2ccccc2)c(OC)c(C)c1OC` (configuration not stated), the TGI in assay [1], in [2], in assay [3], in assay [4], in assay [5] and in assay [6] was more than 100 µM each time.

Turning to `CN1CCn2c(c(Sc3ccc(C(=O)NO)cc3)c3ccccc32)C1=O`, the GI50 in assay [7] is 2.97 µM; in [8] it was 2.41 µM; in assay [1] it was 3.77 µM; in assay [2], 1.78 µM; in assay [9], 8.82 µM; in [3] it was 1.87 µM. For the same molecule, the figures for the GI50 in [4], in assay [5] and in assay [6] were 2.13 µM, 2.34 µM and 1.79 µM, respectively. The TGI in [7] was 12.8 µM; in assay [8] it was more than 29 µM; in assay [1], more than 100 µM; in assay [2], 3.9 µM; in assay [9] it was more than 87.1 µM; in [3], 4.33 µM. For the same molecule, the TGI in assay [4] was determined as 5.58 µM; in [5] it was 9.99 µM; in assay [6], 4 µM.

Consider `COc1ccc2c(c1)CC1c3c(cc4c(c3-2)OCO4)CCN1C` (configuration not stated), for which the TGI in assay [1] was more than 100 µM; in assay [2], 64.9 µM; in assay [3], 88.4 µM; in assay [4], more than 100 µM; in assay [5], more than 100 µM; in [6], more than 100 µM.

On to `C=CCN=C1NC(=O)C(CC(=O)Nc2ccc(C)cc2)S1` (configuration not stated), for which the TGI in assay [1], in assay [2], in assay [3], in assay [4], in assay [5] and in assay [6] was more than 100 µM throughout.

In the case of `CC12CC3CC(C1)CC(N=[N+]=[N-])(C3)C2`, the TGI in assay [1], in assay [2], in [3], in assay [4], in assay [5] and in assay [6] was more than 100 µM in each case.

In the case of `COc1cc(C(=O)CC2(O)C(=O)Nc3c(Cl)cc(Cl)cc32)ccc1O` (configuration not stated), the TGI in [1], in assay [2], in assay [3], in [4], in assay [5] and in assay [6] was more than 100 µM throughout.

Regarding `Cc1ccc(C2=C(c3ccccc3)C(Br)(c3ccccc3)C(c3ccccc3)=C2c2ccc(C)cc2)cc1`, the TGI in assay [1], in assay [2], in assay [3], in [4], in assay [5] and in assay [6] was more than 100 µM in each case.

Regarding `C=C(C)[C@H](O)C(O)CC(C)[C@@H]1CCC23CC12CCC1[C@@]2(C)CCC(OC(C)=O)C(C)(C)C2CC(OC2OC(COC(C)=O)C(O)C(O)C2O)[C@]13C` (some centres not stated), the TGI is 10.8 µM in assay [1]; 11.2 µM in assay [2]; 11.6 µM in assay [3]; 13 µM in assay [4]; 11.6 µM in assay [5]; 10.1 µM in [6].

Consider `O=C1CCCC1NC(=O)C(F)(F)F` (configuration not stated), for which the TGI in assay [1], in assay [2], in [3], in assay [4], in assay [5] and in assay [6] was more than 100 µM throughout.

Take `COC(=O)C(CC(=O)Nc1ccc(Cl)c(Cl)c1)C(=O)C(=O)NC1C2CC3CC(C2)CC1C3` (configuration not stated): the TGI in assay [1], in assay [2], in assay [3], in [4], in assay [5] and in assay [6] was more than 100 µM throughout.

With `O=C1C[C@H]2CC3(CC[C@H]2CN1)OCCO3`, the TGI in [1], in assay [3], in [4], in [5] and in [6] was more than 100 µM in each case.

Take `Cc1ccc(N2C(=O)/C(=C/c3ccc(N(CCC#N)CCC#N)cc3C)N=C2c2cc([N+](=O)[O-])ccc2Cl)cc1`: the TGI in assay [1], in assay [2], in assay [3], in [4], in [5] and in [6] was more than 100 µM in each case.

As for `CCOC(=O)NC(=O)c1cn(CCN2CCN(C(=O)NCCCCCCNC(=O)N3CCN(CCn4cc(C(=O)NC(=O)OCC)c(=O)n(CCN(CC)CC)c4=O)CC3)CC2)c(=O)n(CCC(CC)CC)c1=O`, the TGI in assay [1], in [3], in [4], in assay [5] and in assay [6] was more than 100 µM each time.

For the molecule `COc1cc([N+](=O)[O-])c(OC)cc1-c1nc2sc(Cl)cn2c1/C=N/NC(=N)N/N=C/c1c(-c2cc(OC)c([N+](=O)[O-])cc2OC)nc2sc(Cl)cn12`, in assay [7], the GI50 was 1.91 µM and the TGI was 4.06 µM. In assay [9], the GI50 was more than 100 µM and the TGI is more than 100 µM.

As for `C[CH2][Sn]([Cl])([Cl])[CH2]C`, the GI50 was 18.6 µM in assay [1]; 19.9 µM in assay [2]; 98 µM in assay [3]; 35.1 µM in assay [4]; 39.5 µM in [5]; 27.4 µM in assay [6]. For the same molecule, the TGI in assay [1] was more than 69 µM; in assay [2], 42.6 µM; in assay [3], more than 100 µM; in assay [4], more than 78.6 µM; in assay [5] it was more than 91.9 µM; in assay [6], more than 59.1 µM.

Consider `COc1cc([C@@H]2OC(=O)C3C2C(=O)O[C@H]3c2cc(OC)c(OC)c(OC)c2)cc(OC)c1OC` (some centres not stated), for which the TGI in assay [1], in assay [2], in assay [3], in assay [4], in assay [5] and in assay [6] was more than 100 µM throughout.
